Publication PMC3914206

Experiments:
Assay type in all cases: binding
Details in all cases: Compound Concentration 10 µM
panel of 442 kinases [1] = molecular target: T1, panel of 442 kinases (Homo sapiens, UniProt P10721, T670I/V559D)
T1 construct: purchased KINOMEscan
Excerpt: (§1) We assessed the selectivity of members of this scaffold using the KINOMEscan methodology across a near comprehensive panel of 442 kinases [[18,27]].

panel of 442 kinases [2] = molecular target: T2, panel of 442 kinases (Homo sapiens, UniProt P51957)
T2 construct: purchased KINOMEscan
Excerpt: as §1

panel of 442 kinases [3] = molecular target: T3, panel of 442 kinases (Homo sapiens, UniProt P42336, I800L)
T3 construct: purchased KINOMEscan
Excerpt: as §1

T1 sequence (P10721 26-976 V559D/T670I): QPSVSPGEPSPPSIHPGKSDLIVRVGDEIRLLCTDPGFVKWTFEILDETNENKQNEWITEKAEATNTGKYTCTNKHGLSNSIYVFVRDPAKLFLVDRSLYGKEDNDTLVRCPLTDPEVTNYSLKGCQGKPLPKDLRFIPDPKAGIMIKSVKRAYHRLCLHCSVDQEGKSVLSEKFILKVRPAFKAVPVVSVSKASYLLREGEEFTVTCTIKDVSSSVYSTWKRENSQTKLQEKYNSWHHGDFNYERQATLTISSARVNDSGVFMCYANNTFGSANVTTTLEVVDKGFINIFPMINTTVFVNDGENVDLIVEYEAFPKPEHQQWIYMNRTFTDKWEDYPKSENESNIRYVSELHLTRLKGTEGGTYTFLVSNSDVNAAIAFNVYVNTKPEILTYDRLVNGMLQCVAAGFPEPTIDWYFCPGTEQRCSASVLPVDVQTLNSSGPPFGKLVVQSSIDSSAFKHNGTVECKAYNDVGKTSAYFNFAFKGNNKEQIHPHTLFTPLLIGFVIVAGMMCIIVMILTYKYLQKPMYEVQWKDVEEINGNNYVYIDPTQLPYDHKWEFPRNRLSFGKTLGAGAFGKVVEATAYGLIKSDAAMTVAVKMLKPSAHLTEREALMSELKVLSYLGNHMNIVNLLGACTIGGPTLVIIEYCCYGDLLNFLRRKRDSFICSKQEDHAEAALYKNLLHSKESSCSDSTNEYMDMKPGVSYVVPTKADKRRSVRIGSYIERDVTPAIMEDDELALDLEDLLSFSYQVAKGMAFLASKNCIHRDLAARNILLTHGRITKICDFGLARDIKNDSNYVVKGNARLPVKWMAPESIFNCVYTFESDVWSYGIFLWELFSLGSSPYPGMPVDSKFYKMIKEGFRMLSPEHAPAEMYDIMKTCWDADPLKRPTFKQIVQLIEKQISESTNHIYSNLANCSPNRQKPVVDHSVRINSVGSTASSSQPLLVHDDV
T3 sequence (P42336 whole entry I800L): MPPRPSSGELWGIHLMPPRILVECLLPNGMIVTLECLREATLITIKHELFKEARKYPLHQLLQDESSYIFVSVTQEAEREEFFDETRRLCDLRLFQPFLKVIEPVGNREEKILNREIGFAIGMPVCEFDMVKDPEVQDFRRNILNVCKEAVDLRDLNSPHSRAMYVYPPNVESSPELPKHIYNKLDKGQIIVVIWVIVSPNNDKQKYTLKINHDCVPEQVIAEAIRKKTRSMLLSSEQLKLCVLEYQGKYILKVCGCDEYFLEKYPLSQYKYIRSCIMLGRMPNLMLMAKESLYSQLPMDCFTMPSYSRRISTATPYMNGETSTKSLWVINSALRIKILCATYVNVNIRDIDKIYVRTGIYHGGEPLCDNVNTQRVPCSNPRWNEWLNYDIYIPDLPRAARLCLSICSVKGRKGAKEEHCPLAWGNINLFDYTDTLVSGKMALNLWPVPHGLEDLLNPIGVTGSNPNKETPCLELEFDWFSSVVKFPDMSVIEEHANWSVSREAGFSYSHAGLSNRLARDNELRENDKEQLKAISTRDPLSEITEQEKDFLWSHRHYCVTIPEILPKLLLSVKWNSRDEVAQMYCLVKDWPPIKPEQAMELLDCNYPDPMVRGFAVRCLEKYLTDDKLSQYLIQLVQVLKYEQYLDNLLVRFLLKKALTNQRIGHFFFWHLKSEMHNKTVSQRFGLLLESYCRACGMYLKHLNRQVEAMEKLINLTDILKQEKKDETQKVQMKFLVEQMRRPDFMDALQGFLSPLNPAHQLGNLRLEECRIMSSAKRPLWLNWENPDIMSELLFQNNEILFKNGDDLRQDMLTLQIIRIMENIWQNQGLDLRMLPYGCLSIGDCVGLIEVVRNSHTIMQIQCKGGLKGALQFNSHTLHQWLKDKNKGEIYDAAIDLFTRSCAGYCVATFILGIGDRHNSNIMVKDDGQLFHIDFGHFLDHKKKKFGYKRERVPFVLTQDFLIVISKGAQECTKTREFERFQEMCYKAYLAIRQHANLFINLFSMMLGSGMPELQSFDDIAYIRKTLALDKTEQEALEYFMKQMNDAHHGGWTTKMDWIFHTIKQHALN
T2 sequence (P51957 whole entry): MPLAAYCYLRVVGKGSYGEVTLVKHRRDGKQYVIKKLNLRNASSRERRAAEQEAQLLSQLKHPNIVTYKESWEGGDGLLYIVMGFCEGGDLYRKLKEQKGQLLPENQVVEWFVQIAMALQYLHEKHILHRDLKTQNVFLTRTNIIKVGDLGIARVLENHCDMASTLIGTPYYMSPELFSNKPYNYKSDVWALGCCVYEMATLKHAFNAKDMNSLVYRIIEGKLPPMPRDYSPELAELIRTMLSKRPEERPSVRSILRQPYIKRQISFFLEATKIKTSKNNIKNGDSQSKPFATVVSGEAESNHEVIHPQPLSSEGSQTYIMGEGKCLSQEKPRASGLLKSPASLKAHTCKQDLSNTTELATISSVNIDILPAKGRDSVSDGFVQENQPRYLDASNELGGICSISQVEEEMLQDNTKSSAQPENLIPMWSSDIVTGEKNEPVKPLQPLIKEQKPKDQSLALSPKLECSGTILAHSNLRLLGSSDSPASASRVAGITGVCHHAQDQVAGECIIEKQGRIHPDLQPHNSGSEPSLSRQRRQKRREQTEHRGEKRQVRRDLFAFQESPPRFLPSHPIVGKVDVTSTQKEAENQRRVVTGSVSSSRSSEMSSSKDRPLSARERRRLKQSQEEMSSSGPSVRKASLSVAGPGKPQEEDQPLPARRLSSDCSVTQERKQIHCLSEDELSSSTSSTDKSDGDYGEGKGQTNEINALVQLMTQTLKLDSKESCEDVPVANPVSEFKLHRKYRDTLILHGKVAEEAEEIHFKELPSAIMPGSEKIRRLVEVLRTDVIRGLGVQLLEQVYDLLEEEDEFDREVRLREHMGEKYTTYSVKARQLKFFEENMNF

Compound | KINOMEscan: KIT(V559D,T670I) (panel of 442 kinases [1]) | KINOMEscan: NEK4 (panel of 442 kinases [2]) | KINOMEscan: PIK3CA(I800L) (panel of 442 kinases [3])
COc1cc(C(=O)N2CCC(N3CCN(C)CC3)CC2)ccc1Nc1ncc2c(n1)N(C)c1ccccc1C(=O)N2C [15 (LRRK2-IN-1)] | 81 | 95 | 38
CCOc1cc(C(=O)N2CCC(N3CCN(C)CC3)CC2)ccc1Nc1ncc2c(n1)N(C1CCCC1)c1ccccc1C(=O)N2C [Compound 26] | 100 | 89 | 75
COc1cc(C(=O)N2CCC(N3CCN(C)CC3)CC2)ccc1Nc1ncc2c(n1)N1CCc3cccc(c31)C(=O)N2C [Compound 24] | – | – | 64
COc1cc(C(=O)N2CCC(N3CCN(C)CC3)CC2)ccc1Nc1ncc2c(n1)N(C1CCCC1)c1ccccc1C(=O)N2C [Compound 25, 11-cyclopentyl-2-((2-methoxy-4-(4-(4-methylpiperazin-1-yl)piperidine-1-carbonyl)phenyl)amino)-5-methyl-5H-benzo[e]pyrimido[5,4-b][1,4]diazepin-6(11H)-one] | 80 | 97 | 100
